From patent publication US10385024B2, “Compounds and methods for inhibiting NHE-mediated antiport in the treatment of disorders associated with fluid retention or salt overload and gastrointestinal tract disorders” (Ardelyx, Inc., priority 2012, dated 2019) come the findings set out here.

The structures appear in SMILES notation.

In one test the target is T1, human NHE-3 (Homo sapiens, UniProt P48764).
T1 construct: expressed in transfected cells; host or cells: Opossum kidney (OK) cells (ATCC), transfected by electroporation
T1 sequence (P48764 26-834): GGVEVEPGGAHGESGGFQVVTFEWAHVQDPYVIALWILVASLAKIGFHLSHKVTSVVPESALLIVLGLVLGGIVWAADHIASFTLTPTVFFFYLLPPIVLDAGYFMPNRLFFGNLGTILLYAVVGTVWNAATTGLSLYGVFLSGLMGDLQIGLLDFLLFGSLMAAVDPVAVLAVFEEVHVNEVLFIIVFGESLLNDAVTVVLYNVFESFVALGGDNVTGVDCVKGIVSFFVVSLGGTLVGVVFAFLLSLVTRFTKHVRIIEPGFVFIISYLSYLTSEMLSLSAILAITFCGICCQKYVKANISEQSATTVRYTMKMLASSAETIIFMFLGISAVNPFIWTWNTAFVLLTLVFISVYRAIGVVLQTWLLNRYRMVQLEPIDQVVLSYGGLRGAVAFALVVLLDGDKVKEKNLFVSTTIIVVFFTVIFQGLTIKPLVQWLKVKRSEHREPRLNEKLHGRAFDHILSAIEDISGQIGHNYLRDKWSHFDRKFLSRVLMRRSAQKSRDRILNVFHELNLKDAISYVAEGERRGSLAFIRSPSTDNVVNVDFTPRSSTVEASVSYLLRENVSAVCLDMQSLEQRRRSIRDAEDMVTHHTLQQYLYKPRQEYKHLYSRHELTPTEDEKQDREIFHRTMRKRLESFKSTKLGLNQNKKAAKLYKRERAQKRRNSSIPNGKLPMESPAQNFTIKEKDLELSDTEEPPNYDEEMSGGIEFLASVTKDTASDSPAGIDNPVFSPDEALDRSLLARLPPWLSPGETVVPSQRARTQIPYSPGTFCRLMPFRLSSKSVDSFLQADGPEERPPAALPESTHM
As to the kind of experiment: Cell-based assay of NHE-3 activity (human NHE3 inhibition assay). The following applies: OK cells with human NHE-3 gene, BCECF pH dye, 0-30 μM test compound; for IC50: read-out: Human NHE3 pIC50 (converted). The gist of the method:
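Opossum kidney cells electroporated with rat or human NHE-3, loaded with 5 μM BCECF-AM in NH4Cl-HEPES pH 7.4 for 30 min at RT, then acidified 10 min in Na+-free choline HEPES. Na+-dependent pH recovery rates from BCECF fluorescence, averaged over ≥2 replicates, gave pIC50.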

Test [1] relates to absorption of sodium from the intestinal lumen. As to the kind of experiment: Inhibition of intestinal sodium absorption (urinary sodium and fecal form). Type of test: in vivo, Sprague-Dawley rats. Particulars: rat; for FFS: fecal form score, scale 1 (normal pellet) to 5 (liquid fecal streams), group average, 3 mg/kg oral, 16 h post-dose, vehicle = 1; for response vs control in vivo at 3 mg/kg: 3 mg/kg oral gavage, urine 16 h post-dose, asterisks = significance vs vehicle (*P<0.05, **P<0.01, ***P<0.001), read-out: uNa (% of vehicle). In outline: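 Sprague-Dawley rats (8 weeks, n=6) dosed by oral gavage with compound or water vehicle (10 mL/kg) in late afternoon, then housed in metabolic cages. Over 16 h, urinary sodium measured by ion chromatography and expressed as % of vehicle mean; fecal form scored 1–5, averaged from two observations.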

As for `CN1Cc2c(Cl)cc(Cl)cc2[C@H](c2cccc(S(=O)(=O)NCCOCCOCCN(C)C(=O)NCCCN(CCCNC(=O)N(C)CCOCCOCCNS(=O)(=O)c3cccc([C@@H]4CN(C)Cc5c(Cl)cc(Cl)cc54)c3)CCCNC(=O)N(C)CCOCCOCCNS(=O)(=O)c3cccc([C@@H]4CN(C)Cc5c(Cl)cc(Cl)cc54)c3)c2)C1` [Example 55], the “Human NHE3 pIC50” value at human NHE-3 was “C (C NHE3 pIC50 > 7)”. Besides, in test [1], the FFS is 2 and the response vs control in vivo at 3 mg/kg was 35 to 75%.

For `CN1Cc2c(Cl)cc(Cl)cc2[C@H](c2cccc(S(=O)(=O)NCCOCCOCCNC(=O)CCC(CCC(=O)NCCOCCOCCNS(=O)(=O)c3cccc([C@@H]4CN(C)Cc5c(Cl)cc(Cl)cc54)c3)(CCC(=O)NCCOCCOCCNS(=O)(=O)c3cccc([C@@H]4CN(C)Cc5c(Cl)cc(Cl)cc54)c3)NC(=O)NCCS(=O)(=O)O)c2)C1` [Example 3], at human NHE-3, the IC50 is under 100 nM. The response vs control in vivo at 3 mg/kg in test [1] was under 35%.

As to `CN1Cc2c(Cl)cc(Cl)cc2[C@H](c2cccc(S(=O)(=O)NCCOCCOCCNC(=O)NCCCC(N)(CCCNC(=O)NCCOCCOCCNS(=O)(=O)c3cccc([C@@H]4CN(C)Cc5c(Cl)cc(Cl)cc54)c3)CCCNC(=O)NCCOCCOCCNS(=O)(=O)c3cccc([C@@H]4CN(C)Cc5c(Cl)cc(Cl)cc54)c3)c2)C1` [Example 62], the “Human NHE3 pIC50” value on human NHE-3 was “C (C NHE3 pIC50 > 7)”. The response vs control in vivo at 3 mg/kg in test [1] lay in the range of 35 to 75%.

For `CN(C)CC(=O)NC(CCC(=O)NCCOCCOCCNS(=O)(=O)c1cccc([C@@H]2CN(C)Cc3c(Cl)cc(Cl)cc32)c1)(CCC(=O)NCCOCCOCCNS(=O)(=O)c1cccc([C@@H]2CN(C)Cc3c(Cl)cc(Cl)cc32)c1)CCC(=O)NCCOCCOCCNS(=O)(=O)c1cccc([C@@H]2CN(C)Cc3c(Cl)cc(Cl)cc32)c1` [Example 14, N1,N7-bis(2-(2-(2-(3-((S)-6,8-dichloro-2-methyl-1,2,3,4-tetrahydroisoquinolin-4-yl)phenylsulfonamido)ethoxy)ethoxy)ethyl)-4-(3-(2-(2-(2-(3-((S)-6,8-dichloro-2-methyl-1,2,3,4-tetrahydroisoquinolin-4-yl)phenylsulfonamido)ethoxy)ethoxy)ethylamino)-3-oxopropyl)-4-(2-(dimethylamino)acetamido)heptanediamide], the IC50 at human NHE-3 is under 100 nM. The response vs control in vivo at 3 mg/kg in test [1] is under 35%.

In the case of `CN1Cc2c(Cl)cc(Cl)cc2[C@H](c2cccc(S(=O)(=O)NCCOCCOCCNC(=O)CCC(CCC(=O)NCCOCCOCCNS(=O)(=O)c3cccc([C@@H]4CN(C)Cc5c(Cl)cc(Cl)cc54)c3)(CCC(=O)NCCOCCOCCNS(=O)(=O)c3cccc([C@@H]4CN(C)Cc5c(Cl)cc(Cl)cc54)c3)NC(=O)NCC(=O)O)c2)C1` [Example 7, 18-(3-((S)-6,8-dichloro-2-methyl-1,2,3,4-tetrahydroisoquinolin-4-yl)phenylsulfonamido)-6,6-bis(3-(2-(2-(2-(3-((S)-6,8-dichloro-2-methyl-1,2,3,4-tetrahydroisoquinolin-4-yl)phenylsulfonamido)ethoxy)ethoxy)ethylamino)-3-oxopropyl)-4,9-dioxo-13,16-dioxa-3,5,10-triazaoctadecan-1-oic acid], the IC50 at human NHE-3 is under 100 nM. Moreover, the response vs control in vivo at 3 mg/kg in test [1] is under 35%.

In the case of `CN1Cc2c(Cl)cc(Cl)cc2[C@H](c2cccc(S(=O)(=O)NCCOCCOCCNC(=O)NCCCN(CCCNC(=O)NCCOCCOCCNS(=O)(=O)c3cccc([C@@H]4CN(C)Cc5c(Cl)cc(Cl)cc54)c3)CCCNC(=O)NCCOCCOCCNS(=O)(=O)c3cccc([C@@H]4CN(C)Cc5c(Cl)cc(Cl)cc54)c3)c2)C1` [Example 43, (S)—N,N′-(15-(1-(3-((S)-6,8-dichloro-2-methyl-1,2,3,4-tetrahydroisoquinolin-4-yl)phenylsulfonamido)-10-oxo-3,6-dioxa-9,11-diazatetradecan-14-yl)-10,20-dioxo-3,6,24,27-tetraoxa-9,11,15,19,21-pentaazanonacosane-1,29-diyl)bis(3-((S)-6,8-dichloro-2-methyl-1,2,3,4-tetrahydroisoquinolin-4-yl)benzenesulfonamide)], at human NHE-3, the IC50 was under 100 nM. Moreover, the response vs control in vivo at 3 mg/kg in test [1] lay in the range of 35 to 75%.

Consider `CN1Cc2c(Cl)cc(Cl)cc2[C@H](c2cccc(S(=O)(=O)NCCOCCOCCNC(=O)NCCCC(CCCNC(=O)NCCOCCOCCNS(=O)(=O)c3cccc([C@@H]4CN(C)Cc5c(Cl)cc(Cl)cc54)c3)(CCCNC(=O)NCCOCCOCCNS(=O)(=O)c3cccc([C@@H]4CN(C)Cc5c(Cl)cc(Cl)cc54)c3)NC(=O)NC[C@H](O)[C@@H](O)[C@H](O)[C@H](O)CO)c2)C1` [Example 65], for which the “Human NHE3 pIC50” value at human NHE-3 is reported as “C (C NHE3 pIC50 > 7)”. Moreover, in test [1], the response vs control in vivo at 3 mg/kg is 35 to 75%.

With `CN1Cc2c(Cl)cc(Cl)cc2[C@H](c2cccc(S(=O)(=O)NCCOCCOCCNC(=O)CCC(CCC(=O)NCCOCCOCCNS(=O)(=O)c3cccc([C@@H]4CN(C)Cc5c(Cl)cc(Cl)cc54)c3)(CCC(=O)NCCOCCOCCNS(=O)(=O)c3cccc([C@@H]4CN(C)Cc5c(Cl)cc(Cl)cc54)c3)NC(=O)CCC(=O)O)c2)C1` [Example 40], the “Human NHE3 pIC50” value at human NHE-3 is “C (C NHE3 pIC50 > 7)”. In addition, in test [1], the response vs control in vivo at 3 mg/kg was under 35%.

For `CN1Cc2c(Cl)cc(Cl)cc2[C@H](c2cccc(S(=O)(=O)NCCOCCOCCNC(=O)CCC(CCC(=O)NCCOCCOCCNS(=O)(=O)c3cccc([C@@H]4CN(C)Cc5c(Cl)cc(Cl)cc54)c3)(CCC(=O)NCCOCCOCCNS(=O)(=O)c3cccc([C@@H]4CN(C)Cc5c(Cl)cc(Cl)cc54)c3)NC(=O)COCC(=O)O)c2)C1` [Example 6, 1-(3-((S)-6,8-dichloro-2-methyl-1,2,3,4-tetrahydroisoquinolin-4-yl)phenylsulfonamido)-13,13-bis(3-(2-(2-(2-(3-((S)-6,8-dichloro-2-methyl-1,2,3,4-tetrahydroisoquinolin-4-yl)phenylsulfonamido)ethoxy)ethoxy)ethylamino)-3-oxopropyl)-10,15-dioxo-3,6,17-trioxa-9,14-diazanonadecan-19-oic Acid], the IC50 at human NHE-3 was under 100 nM. Besides, the response vs control in vivo at 3 mg/kg in test [1] is under 35%.

Consider `CN1Cc2c(Cl)cc(Cl)cc2[C@H](c2cccc(S(=O)(=O)NCCOCCOCCNC(=O)CCC(CCC(=O)NCCOCCOCCNS(=O)(=O)c3cccc([C@@H]4CN(C)Cc5c(Cl)cc(Cl)cc54)c3)(CCC(=O)NCCOCCOCCNS(=O)(=O)c3cccc([C@@H]4CN(C)Cc5c(Cl)cc(Cl)cc54)c3)N(C)C)c2)C1` [Example 4, N^1,N^7-bis(2-(2-(2-(3-((S)-6,8-dichloro-2-methyl-1,2,3,4-tetrahydroisoquinolin-4-yl)phenylsulfonamido)ethoxy)ethoxy)ethyl)-4-(3-(2-(2-(2-(3-((S)-6,8-dichloro-2-methyl-1,2,3,4-tetrahydroisoquinolin-4-yl)phenylsulfonamido)ethoxy)ethoxy)ethylamino)-3-oxopropyl)-4-(dimethylamino)heptanediamide], for which the IC50 on human NHE-3 is under 100 nM. In test [1], the FFS is on record as 2 and the response vs control in vivo at 3 mg/kg is under 35%.

As for `CN1Cc2c(Cl)cc(Cl)cc2[C@H](c2cccc(S(=O)(=O)NCCOCCOCCNC(=O)CCC(N)(CCC(=O)NCCOCCOCCNS(=O)(=O)c3cccc([C@@H]4CN(C)Cc5c(Cl)cc(Cl)cc54)c3)CCC(=O)NCCOCCOCCNS(=O)(=O)c3cccc([C@@H]4CN(C)Cc5c(Cl)cc(Cl)cc54)c3)c2)C1` [Example 2, 4-amino-N^1,N^7-bis(2-(2-(2-(3-((S)-6,8-dichloro-2-methyl-1,2,3,4-tetrahydroisoquinolin-4-yl)phenylsulfonamido)ethoxy)ethoxy)ethyl)-4-(3-(2-(2-(2-(3-((S)-6,8-dichloro-2-methyl-1,2,3,4-tetrahydroisoquinolin-4-yl)phenylsulfonamido)ethoxy)ethoxy)ethylamino)-3-oxopropyl)heptanediamide], the IC50 on human NHE-3 is under 100 nM. Moreover, the response vs control in vivo at 3 mg/kg in test [1] was under 35%.

`CN1Cc2c(Cl)cc(Cl)cc2[C@H](c2cccc(S(=O)(=O)NCCOCCOCCNC(=O)CCC(CCC(=O)NCCOCCOCCNS(=O)(=O)c3cccc([C@@H]4CN(C)Cc5c(Cl)cc(Cl)cc54)c3)(CCC(=O)NCCOCCOCCNS(=O)(=O)c3cccc([C@@H]4CN(C)Cc5c(Cl)cc(Cl)cc54)c3)NC(=O)CCCC(=O)O)c2)C1` [Example 36]: on human NHE-3, the “Human NHE3 pIC50” value is given as “C (C NHE3 pIC50 > 7)”. In addition, the response vs control in vivo at 3 mg/kg in test [1] was under 35%.
